From US11946092B2, “Method for producing 2-keto-3-deoxygluconate from 2-(acetylamino)-2-deoxy-d-gluconic acid by two enzymes” (SHANDONG UNIVERSITY, priority 2022, dated 2024)

System: deacetylase OngB
Assay: Substrate specificity analysis of OngB (acetate production)
Assay type: biochemical, Pseudoalteromonas prydzensis ACAM 620
Conditions: 5 μM OngB, 25 mM substrate, 10 mM Bis-Tris-HCl (pH 7.5), 25° C., 30 min; FIG. 4A
Method: Substrate specificity assays were performed with GlcNAc1A, GlcNAc, GlcNAc-6-P, N-acetyl-D-glutamate and N-acetyl-D-serine. Standard reaction system contained 5 μM OngB, 25 mM substrate and 10 mM Bis-Tris-HCl (pH 7.5). Reactions were conducted at 25° C. for 30 min. The production of acetate in the reaction mixture was determined with an Acetic Acid (ACS Analyser Format) Assay Kit. One unit of enzyme (U) is defined as the amount of enzyme required to release 1 μmol of acetate per minute.

Row | OngB activity towards substrate (production of acetate) | Structure (SMILES)
1 | little or no activity | CC(=O)N[C@H](CO)C(=O)O [N-acetyl-D-serine]
2 | high substrate specificity | CC(=O)N[C@@H](C(=O)O)[C@@H](O)[C@H](O)[C@H](O)CO [GlcNAc1A, 2-(acetylamino)-2-deoxy-D-gluconic acid]
3 | little or no activity | CC(=O)N[C@H]1C(O)O[C@H](CO)[C@@H](O)[C@@H]1O (stereo partly drawn) [GlcNAc, N-acetyl-D-glucosamine]
4 | little or no activity | CC(=O)N[C@@H]1[C@@H](O)[C@H](O)[C@@H](COP(=O)(O)O)O[C@@H]1O [GlcNAc-6-P]

Row | Structure (SMILES) | OngB activity towards substrate (production of acetate)
5 | CC(=O)N[C@H](CCC(=O)O)C(=O)O [N-acetyl-D-glutamate] | little or no activity

System: deaminase OngC
Assay: Substrate specificity analysis of OngC (ammonia production)
Assay type: biochemical, Pseudoalteromonas prydzensis ACAM 620
Conditions: 0.5 μM OngC, 10 mM substrate, 10 mM Bis-Tris-HCl (pH 7.5), 25° C., 30 min; FIG. 4B
Method: Substrate specificity assays were performed with GlcN1A, D-glucosamine, D-galactosamine and D-mannosamine. GlcN1A was prepared by incubating 10 μM OngB with 10 mM GlcNAc1A in 10 mM Bis-Tris-HCl (pH 7.5) at 25° C. for 4 h. Standard reaction system contained 0.5 μM OngC, 10 mM substrate and 10 mM Bis-Tris-HCl (pH 7.5). Reactions were conducted at 25° C. for 30 min. The production of ammonia in the reaction mixture was determined with an AMMONIA (Rapid) ASSAY PROCEDURE. One unit of enzyme (U) is defined as the amount of enzyme required to release 1 μmol of ammonia per minute.

Row | OngC activity towards substrate (production of ammonia) | Structure (SMILES)
6 | little or no activity | N[C@H]1C(O)O[C@H](CO)[C@H](O)[C@@H]1O (stereo partly drawn) [D-galactosamine]
7 | high substrate specificity | N[C@@H](C(=O)O)[C@@H](O)[C@H](O)[C@H](O)CO [GlcN1A, 2-(amino)-2-deoxy-D-gluconic acid]
8 | little or no activity | N[C@@H]1C(O)O[C@H](CO)[C@@H](O)[C@@H]1O (stereo partly drawn) [D-mannosamine]
9 | little or no activity | N[C@H]1C(O)O[C@H](CO)[C@@H](O)[C@@H]1O (stereo partly drawn) [D-glucosamine]
